From paper PMC6327989 (Journal of Enzyme Inhibition and Medicinal Chemistry, 2019)

Target: recombinant Sphingomyelinase D (SMase D) from L. laeta venom (Loxosceles laeta, UniProt Q8I914)
Experiment: biochemical

Sequence of recombinant Sphingomyelinase D (SMase D) from L. laeta venom (Q8I914 27-311 limits assumed): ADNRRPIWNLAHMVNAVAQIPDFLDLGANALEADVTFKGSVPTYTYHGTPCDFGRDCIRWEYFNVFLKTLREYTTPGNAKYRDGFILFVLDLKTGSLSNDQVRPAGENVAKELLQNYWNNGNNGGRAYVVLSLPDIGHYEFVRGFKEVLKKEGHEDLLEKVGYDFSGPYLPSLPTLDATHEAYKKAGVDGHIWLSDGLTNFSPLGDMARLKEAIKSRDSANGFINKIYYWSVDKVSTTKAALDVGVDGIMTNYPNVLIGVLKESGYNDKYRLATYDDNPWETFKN

Q: `Cc1ccc(S(=O)(=O)Oc2cc(N)nc(SCc3ccc(C#N)cc3)n2)cc1` [compound 1, 6-amino-2-((4-cyanobenzyl)thio)pyrimidin-4-yl 4-methylbenzenesulphonate] was tested. Which Ki did it give?
A: 540 ± 130 nM

Q: Which Ki does the source give for `Cc1[nH]c2ccccc2c1/C=N/NS(=O)(=O)c1ccc(Br)cc1` [compound 5, 4-bromo-N-[(E)-(2-methyl-1H-indol-3-yl)methyleneamino]benzenesulfonamide] here?
A: 490 ± 100 nM

Q: How did the Ki turn out when `Cc1cc(OS(=O)(=O)c2ccc(Cl)cc2)cc2c1C(=O)/C(=C/c1cccnc1)O2` [compound 6, 4-methyl-3-oxo-2–(3-pyridylmethylene)benzo[3,4-b]furan-6-yl 4-chlorobenzenesulphonate] was run?
A: 590 ± 230 nM
